Source: patent US20230348493A1, “COMPOUND FOR ADJUSTING ACTIVITY OF NMDA RECEPTOR, AND PHARMACEUTICAL COMPOSITION AND USE THEREOF” (BEIJING GREATWAY PHARMACEUTICAL TECHNOLOGY CO., LTD., priority 2020, published 2023)

biological target: T1, NMDA receptor (Rattus norvegicus, UniProt P35439); assay: Inhibition of [3H]-MK-801 binding to rat crude synaptosomes (receptor ligand binding assay); conditions: affinity on NMDA; [3H]-MK-801 10 nM, rat prefrontal cortex and hippocampus crude synaptosomes; read-out: IC50
T1 construct: After the rats were decapitated, the prefrontal cortex and hippocampus were rapidly separated on ice; from tissue; host or cells: SD male rat prefrontal cortex and hippocampus, crude synaptosomes
Experimental: The affinity of the tested compounds on NMDA receptor was researched by receptor ligand binding assays.
Ten SD male rats of SPF grade were ordered and acclimated for 7 days for future use.
(§1) After the rats were decapitated, the prefrontal cortex and hippocampus were rapidly separated on ice and weighed, 10 volumes of 50 mM Tris-HCl buffer (50 mM Tris-HCl, 5 mM MgCl2·6H2O, 1 mM EDTA, 0.5% (W/V) BSA, 1 mM PMSF, 0.32 M sucrose, pH 7.4) was added, and the mixture was homogenized for five times at 1500 revolutions/min with 30 s each time. A homogenate was centrifuged for 10 min at 1000×g, and a supernatant was taken and centrifuged for 10 min at 40,000×g, the precipitates were collected, re-suspended with volumes of Tris-HCl buffer, incubated at 37° C. for 10 min, and centrifuged for 10 min at 40,000×g, finally the precipitates were re-suspended with the above buffer, aliquoted and stored at −80° C. for later use.
(2) Detection of Inhibitory Function of Tested Medicines on Binding of Crude Synaptosomes in Rats to [^3H]-MK-801
50 μg of rat crude synaptosomal proteins was added to all tubes respectively. A volume of 50 μl of MK-801 (dizocilpine) was added to a non-specific binding tube to achieve a final concentration of 100 μM, and the materials were reacted for 15 min in advance. 20 μL of control drug at corresponding concentration was added to the test tube for reaction for 15 min. A volume of 30 μl of labeled ligand [^3H]-MK-801 was successively added to all tubes to achieve a final concentration of 10 nM. All reaction tubes were supplemented to a volume of 200 μl with 50 mM Tris-HCl buffer (50 mM Tris-HCl, 5 mM MgCl2·6H2O, 1 mM EDTA, 0.5% (WN) BSA, 0.1% NaN3, pH 7.4). A reaction was carried out at 37° C. for 10 min. A type-49 glass fiber filter membrane was prepared and a sample was applied at the same time. The filter membrane was placed in a multi-head cell collector, and a reaction system was subjected to suction filtration under negative pressure and washed with an ice-cold 50 mM Tris-HCl buffer, 10 ml each time, for a total of 5 times. After suction drying, 1 ml of scintillation liquid was added to the filter membrane, the filter membrane was placed on a shaker for shaking for 1.5 h and then placed in a liquid scintillation counter on the next day to determine the radioactive intensity.
GraphPad5.0 software was used to analyze the data, and the percentage of competitive inhibition was calculated through nonlinear fitting, wherein:
Percentage of competitive inhibition %=((total binding tube cpm−compound cpm)/(total binding tube cpm−non-specific binding tube cpm))×100%;
Specific binding amount=total binding amount−non-specific binding amount, wherein each binding site was determined by double compound tubes.

Row | SMILES | IC50
1 | C[C@@H](O)[C@H](N)C(=O)N1CCC2(CC1)N[C@H](C(N)=O)CS2.Cl [A-274] | 280 pM
2 | C[C@@H](O)[C@H](N)C(=O)N1CCC2(CC1)N[C@H](C(=O)N1CCSCC1)CS2.Cl [A-449] | 470 pM
3 | C[C@@H](O)[C@H](N)C(=O)N1CC2(C1)N[C@H](C(=O)N1CCOCC1)CS2.Cl [A-409] | 560 pM
4 | CC(=O)N1CCC2(CC1)NCCS2 [A-031] | 350 pM
5 | Cl.NC(=O)[C@@H]1CSC2(CCN(C(=O)[C@@H](N)CO)CC2)N1 [A-275] | 350 pM
6 | CC(C)[C@H](N)C(=O)N1CC2(C1)N[C@H](C(N)=O)CS2.Cl [A-260] | 260 pM
7 | NC(=O)C(CO)NC(=O)C1CSC2(CN(C(=O)C(N)CO)C2)N1 (stereo not drawn) [A-334] | 380 pM
8 | CC(C)[C@H](N)C(=O)N1CCSC12CN(C(=O)[C@@H](N)[C@@H](C)O)C2.Cl [A-331] | 590 pM
9 | CC(=O)N1CCCC2(C1)SCCN2C(=O)C(C)C (stereo not drawn) [A-119] | 1890 pM
10 | C[C@@H](O)[C@H](N)C(=O)N1CC2(C1)N[C@H](C(N)=O)CS2.Cl [A-258] | 330 pM

test system: not listed separately; assay: In-vivo metabolism (pharmacokinetic) study in rats, oral / tail intravenous; conditions: male, SD, rat, plasma; oral 10 mg/kg vs intravenous 1 mg/kg, rats
Experimental: The pharmacokinetic parameters such as exposure of plasma concentrations of the compounds of examples were evaluated by oral/tail intravenous injection model tests in rats in order to evaluate the in-vivo metabolic stability in rats.
The male SD rats weighing 200±20 g and being SPF grade were used in this experiment and purchased from SPF.
Preparation of intravenous solution: 1 mg of each tested medicine was weighed accurately, and a volume was metered to 5 mL with 0.9% sodium chloride solution to prepare 0.2 mg/mL. A dose volume was 1 mL for per 200 g of weight, and the dose was 1 mg for per 1 kg of weight based on the concentration conversion.
Preparation of intragastric solution: 10 mg of each tested medicine was accurately weighed, and a volume was metered to 10 mL with 0.9% sodium chloride solution to prepare 1 mg/mL of the solution. A dose volume was 2 mL for per 200 g of weight, and the dose was 10 mg for per 1 kg of weight based on the concentration conversion.
Rats were randomly divided into 8 groups, 6 rats were in each group, oral gavage administration and tail intravenous administration were performed according to the above doses. About 0.2 mL of orbital blood was collected before administration and at 2 min, 5 min, 15 min, 30 min, 1 h, 2 h, 3 h, 4 h and 6 h after administration, respectively, and centrifuged at 3000 rpm for 10 min at 4° C., and a supernatant was taken for LC/MS/MS determination. A DAS pharmacokinetics program was used to analyze the measured data and calculate the main pharmacokinetic parameters.

Row | SMILES | bioavailability
11 | C[C@@H](O)[C@H](N)C(=O)N1CCC2(CC1)N[C@H](C(N)=O)CS2.Cl [A-274] | 62.7%
12 | CC(C)[C@H](N)C(=O)N1CC2(C1)N[C@H](C(N)=O)CS2.Cl [A-260] | 74.6%
13 | C[C@@H](O)[C@H](N)C(=O)N1CC2(C1)N[C@H](C(N)=O)CS2.Cl [A-258] | 27.3%

same assay, conditions: rat; Intravenous injection, 1 mg/kg, male SD rats, plasma

Row | SMILES | AUC(0-t) | Cmax
14 | C[C@@H](O)[C@H](N)C(=O)N1CCC2(CC1)N[C@H](C(N)=O)CS2.Cl [A-274] | 1630 ng·h/mL | 2480 ng/mL
15 | CC(C)[C@H](N)C(=O)N1CC2(C1)N[C@H](C(N)=O)CS2.Cl [A-260] | 1450 ng·h/mL | 2240 ng/mL
16 | C[C@@H](O)[C@H](N)C(=O)N1CC2(C1)N[C@H](C(N)=O)CS2.Cl [A-258] | 4180 ng·h/mL | 3630 ng/mL

same assay, conditions: rat; Oral, 10 mg/kg, male SD rats, plasma

Row | SMILES | AUC(0-t) | Cmax
17 | C[C@@H](O)[C@H](N)C(=O)N1CCC2(CC1)N[C@H](C(N)=O)CS2.Cl [A-274] | 3350 ng·h/mL | 1880 ng/mL
18 | CC(C)[C@H](N)C(=O)N1CC2(C1)N[C@H](C(N)=O)CS2.Cl [A-260] | 10800 ng·h/mL | 6210 ng/mL
19 | C[C@@H](O)[C@H](N)C(=O)N1CC2(C1)N[C@H](C(N)=O)CS2.Cl [A-258] | 11400 ng·h/mL | 4910 ng/mL

biological target: T1, NMDA receptor; assay: NMDA receptor agonistic properties in rat crude synaptosomal proteins (maximum [3H]-MK-801 binding vs 1 mM glycine); type: biochemical; conditions: maximum [3H]-MK-801 binding % relative to 1 mM glycine; 50 μM glutamic acid
Experimental: as §1
(3) Detection of Influence of Tested Medicines on NMDA Receptor Agonistic Properties in Rat Crude Synaptosomal Proteins
100 μg of rat crude synaptosomal proteins was added to all tubes respectively. 50 μl of 5,7-dichlorokynurenic acid was added to a non-specific binding tube to achieve a final concentration of 10 μM. All tubes were preloaded with 50 μM of glutamic acid, and the materials were reacted for 15 min in advance. 20 μL of control drug at corresponding concentration was added to the test tube, and then reacted for 15 min. 1 mM glycine was added to the maximum reaction tube. A volume of 30 μl of labeled ligand [^3H]-MK-801 was successively added to all tubes to achieve a final concentration of 10 nM, and reacted for 15 min. All reaction tubes were supplemented to a volume of 500 μl with 50 mM Tris-HCl buffer (50 mM Tris-HCl, 5 mM MgCl2·6H2O, 1 mM EDTA, 0.5% (WN) BSA, 0.1% NaN3, pH 7.4). A reaction was carried out at 37° C. for 15 min. A type-49 glass fiber filter membrane was prepared and a sample was applied at the same time. The filter membrane was placed in a multi-head cell collector, and the reaction system was subjected to suction filtration under negative pressure and washed with an ice-cold 50 mM Tris-HCl buffer, 10 ml each time, for a total of 5 times. After suction drying, 1 ml of scintillation liquid was added to the filter membrane, the filter membrane was placed on the shaker for shaking for 1.5 h and then placed in the liquid scintillation counter on the next day to determine the radioactive intensity.
In an agonistic experiment, maximum [^3H]-MK-801 binding %=((tested compounds cpm−5,7 dichlorokynurenic acid cpm)/(1 mM glycine cpm−5,7 dichlorokynurenic acid cpm))×100%.

Row | SMILES | Maximum agonistic efficacy (%)
20 | C[C@@H](O)[C@H](N)C(=O)N1CCC2(CC1)N[C@H](C(N)=O)CS2.Cl [A-274] | 55%
21 | C[C@@H](O)[C@H](N)C(=O)N1CCC2(CC1)N[C@H](C(=O)N1CCSCC1)CS2.Cl [A-449] | 38%
22 | C[C@@H](O)[C@H](N)C(=O)N1CC2(C1)N[C@H](C(=O)N1CCOCC1)CS2.Cl [A-409] | 36%
23 | CC(=O)N1CCC2(CC1)NCCS2 [A-031] | 52%
24 | Cl.NC(=O)[C@@H]1CSC2(CCN(C(=O)[C@@H](N)CO)CC2)N1 [A-275] | 12%
25 | CC(C)[C@H](N)C(=O)N1CC2(C1)N[C@H](C(N)=O)CS2.Cl [A-260] | 26%
26 | NC(=O)C(CO)NC(=O)C1CSC2(CN(C(=O)C(N)CO)C2)N1 (stereo not drawn) [A-334] | 34%
27 | CC(C)[C@H](N)C(=O)N1CCSC12CN(C(=O)[C@@H](N)[C@@H](C)O)C2.Cl [A-331] | 31%
28 | CC(=O)N1CCCC2(C1)SCCN2C(=O)C(C)C (stereo not drawn) [A-119] | 35%
29 | C[C@@H](O)[C@H](N)C(=O)N1CC2(C1)N[C@H](C(N)=O)CS2.Cl [A-258] | 21%

test system: rats; assay: Forced swimming test in rats; type: in vivo; conditions: Rattus norvegicus, 48 h, Po, Day 2, *P<0.05, **P<0.01 compared with the control group, read-out: Reduction percentage (%) of floating time, Day 2
Experimental: Pharmacodynamic evaluation was performed by the forced swimming tests in rats. The experimental animals were male SD rats weighing 150 g-180 g and being SPF grade, and acclimated for one week after purchase, and then subjected to forced swimming tests, the rats need be fasted for 12 hours before the tests. The compounds of examples were dissolved with normal saline, and blank control group (normal saline) and example compound administration group were established. 8-10 rats were provided for each group. On the day before the tests, the rats were placed in a glass cylinder with a height of 40 cm, an inner diameter of 18 cm, and a water depth of 23 cm for pre-swimming for 15 min, and a water temperature was 28° C. After the pre-swimming the rats were removed, wiped with a dry cloth, and dried with an electrical heater, then returned to a rearing cage, and administered. A formal forced swimming test was performed on the next day for a total of 5 min. The accumulated immobility time within 5 min was recorded, and a second forced swimming test was performed on the seventh day; the criteria for determining immobility were that the rats stopped struggling in the water, were in a floating state, and had only slight limb movements to keep the head floating on the water surface. The results are shown in Table 4, and the experimental data were statistically analyzed by GraphPad Prism 5.0 software.

Row | SMILES | inhibition in vivo at 0.1 mg/kg
30 | CC(C)[C@H](N)C(=O)N1CC2(C1)N[C@H](C(N)=O)CS2.Cl [A-260] | 31.6%
31 | C[C@@H](O)[C@H](N)C(=O)N1CC2(C1)N[C@H](C(N)=O)CS2.Cl [A-258] | 74.8%

same assay, conditions: Rattus norvegicus, 168 h, Po, Day 7, *P<0.05, **P<0.01 compared with the control group, read-out: Reduction percentage (%) of floating time, Day 7

Row | SMILES | inhibition in vivo at 0.1 mg/kg
32 | CC(C)[C@H](N)C(=O)N1CC2(C1)N[C@H](C(N)=O)CS2.Cl [A-260] | 15.5%
33 | C[C@@H](O)[C@H](N)C(=O)N1CC2(C1)N[C@H](C(N)=O)CS2.Cl [A-258] | 56.4%
